Reference: ChEMBL document CHEMBL3046898, “Synthesis and characterization of flurbiprofen hydrazide derivatives as potential anti-HCV, anticancer and antimicrobial agents” (2013)
The source made the active and inactive calls. The calls are words filed in the database; no cut-off is given here.

Columns and labels:
Malme-3M = assay: Cytotoxicity against human MALME-3M assessed as cell growth at 10 uM after 48 hrs by SRB assay; type: functional; conditions: read-out: Activity
Photorhabdus luminescens = assay: Antibacterial activity against Photorhabdus luminescens at 10 mg/ml after 24 hrs by disc diffusion method; type: functional, organism-based
K562 = assay: Cytotoxicity against human K562 assessed as cell growth at 10 uM after 48 hrs by SRB assay; type: functional; conditions: K562, 48 h, read-out: Activity
786-0 = assay: Cytotoxicity against human 786-0 assessed as cell growth at 10 uM after 48 hrs by SRB assay; type: functional; conditions: 786-0, 48 h, read-out: Activity
SF-268 = assay: Cytotoxicity against human SF268 assessed as cell growth at 10 uM after 48 hrs by SRB assay; type: functional; conditions: SF-268, 48 h, read-out: Activity
HOP-62 = assay: Cytotoxicity against human HOP62 assessed as cell growth at 10 uM after 48 hrs by SRB assay; type: functional; conditions: HOP-62, 48 h, read-out: Activity
U-251 = assay: Cytotoxicity against human U251 assessed as cell growth at 10 uM after 48 hrs by SRB assay; type: functional; conditions: U-251, 48 h, read-out: Activity
BT-549 = assay: Cytotoxicity against human BT549 assessed as cell growth at 10 uM after 48 hrs by SRB assay; type: functional; conditions: BT-549, 48 h, read-out: Activity
SK-OV-3 = assay: Cytotoxicity against human SKOV3 assessed as cell growth at 10 uM after 48 hrs by SRB assay; type: functional; conditions: SK-OV-3, 48 h, read-out: Activity
NCI-H322M = assay: Cytotoxicity against human NCI-H322M assessed as cell growth at 10 uM after 48 hrs by SRB assay; type: functional; conditions: read-out: Activity
SNB-75 = assay: Cytotoxicity against human SNB75 assessed as cell growth at 10 uM after 48 hrs by SRB assay; type: functional; conditions: SNB-75, 48 h, read-out: Activity
NCI-H226 = assay: Cytotoxicity against human NCI-H226 assessed as cell growth at 10 uM after 48 hrs by SRB assay; type: functional; conditions: NCI-H226, 48 h, read-out: Activity
RXF 393 = assay: Cytotoxicity against human RXF393 assessed as cell growth at 10 uM after 48 hrs by SRB assay; type: functional; conditions: RXF 393, 48 h, read-out: Activity
HCT-116 = assay: Cytotoxicity against human HCT116 assessed as cell growth at 10 uM after 48 hrs by SRB assay; type: functional; conditions: HCT-116, 48 h, read-out: Activity
MDA-MB-231 = assay: Cytotoxicity against human MDA-MB-231 assessed as cell growth at 10 uM after 48 hrs by SRB assay; type: functional; conditions: MDA-MB-231, 48 h, read-out: Activity
NCI-H522 = assay: Cytotoxicity against human NCI-H522 assessed as cell growth at 10 uM after 48 hrs by SRB assay; type: functional; conditions: NCI-H522, 48 h, read-out: Activity
HT-29 = assay: Cytotoxicity against human HT-29 assessed as cell growth at 10 uM after 48 hrs by SRB assay; type: functional; conditions: HT-29, 48 h, read-out: Activity
Proteus vulgaris = assay: Antibacterial activity against Proteus vulgaris at 6.25 to 200 ug/ml after 24 hrs by microwell dilution method; type: functional, organism-based
LOX IMVI = assay: Cytotoxicity against human LOXIMVI assessed as cell growth at 10 uM after 48 hrs by SRB assay; type: functional; conditions: read-out: Activity
Salmonella paratyphi [1] = assay: Antibacterial activity against Salmonella paratyphi at 10 mg/ml after 24 hrs by disc diffusion method; type: functional, organism-based; conditions: Salmonella enterica subsp. enterica serovar Paratyphi A
[2] = system: Acinetobacter radioresistens; assay: Antibacterial activity against Acinetobacter radioresistens at 6.25 to 200 ug/ml after 24 hrs by microwell dilution method; type: functional, organism-based
Escherichia coli = assay: Antibacterial activity against Escherichia coli at 6.25 to 200 ug/ml after 24 hrs by microwell dilution method; type: functional, organism-based
A549 = assay: Cytotoxicity against human A549 assessed as cell growth at 10 uM after 48 hrs by SRB assay; type: functional; conditions: A549, 48 h, read-out: Activity
Kluyveromyces marxianus = assay: Antifungal activity against Kluyveromyces marxianus at 10 mg/ml after 48 hrs by disc diffusion method; type: functional, organism-based
Hs-578T = assay: Cytotoxicity against human Hs 578T assessed as cell growth at 10 uM after 48 hrs by SRB assay; type: functional; conditions: read-out: Activity
Hepacivirus hominis = assay: Inhibition of HCV N-terminal His-tagged NS5B RNA dependent RNA polymerase expressed in Escherichia coli DH5alpha using poly rA/U12 as primer at 200 uM after 60 mins by liquid scintillation counting
Aspergillus = assay: Antifungal activity against Aspergillus at 10 mg/ml after 72 hrs by disc diffusion method; type: functional, organism-based
Klebsiella aerogenes = assay: Antibacterial activity against Enterobacter aerogenes at 10 mg/ml after 24 hrs by disc diffusion method; type: functional, organism-based
Salmonella paratyphi [3] = assay: Antibacterial activity against Salmonella paratyphi at 6.25 to 200 ug/ml after 24 hrs by microwell dilution method; type: functional, organism-based; conditions: Salmonella enterica subsp. enterica serovar Paratyphi A
SF-539 = assay: Cytotoxicity against human SF539 assessed as cell growth at 10 uM after 48 hrs by SRB assay; type: functional; conditions: SF-539, 48 h, read-out: Activity
Staphylococcus cohnii = assay: Antibacterial activity against Staphylococcus cohnii at 10 mg/ml after 24 hrs by disc diffusion method; type: functional
SK-MEL-28 = assay: Cytotoxicity against human SK-MEL-28 assessed as cell growth at 10 uM after 48 hrs by SRB assay; type: functional; conditions: SK-MEL-28, 48 h, read-out: Activity
UACC-257 = assay: Cytotoxicity against human UACC257 assessed as cell growth at 10 uM after 48 hrs by SRB assay; type: functional; conditions: UACC-257, 48 h, read-out: Activity
T47D = assay: Cytotoxicity against human T47D assessed as cell growth at 10 uM after 48 hrs by SRB assay; type: functional; conditions: read-out: Activity
Micrococcus lylae = assay: Antibacterial activity against Micrococcus lylae at 6.25 to 200 ug/ml after 24 hrs by microwell dilution method; type: functional, organism-based
[4] = system: Acinetobacter radioresistens; assay: Antibacterial activity against Acinetobacter radioresistens at 10 mg/ml after 24 hrs by disc diffusion method; type: functional, organism-based
HOP-92 = assay: Cytotoxicity against human HOP92 assessed as cell growth at 10 uM after 48 hrs by SRB assay; type: functional; conditions: HOP-92, 48 h, read-out: Activity
HCT-15 = assay: Cytotoxicity against human HCT15 assessed as cell growth at 10 uM after 48 hrs by SRB assay; type: functional; conditions: HCT-15, 48 h, read-out: Activity
[5] = system: Schwanniomyces occidentalis; assay: Antifungal activity against Schwanniomyces occidentalis at 10 mg/ml after 48 hrs by disc diffusion method; type: functional, organism-based
CAKI-1 = assay: Cytotoxicity against human Caki1 assessed as cell growth at 10 uM after 48 hrs by SRB assay; type: functional; conditions: CAKI-1, 48 h, read-out: Activity
SW-620 = assay: Cytotoxicity against human SW620 assessed as cell growth at 10 uM after 48 hrs by SRB assay; type: functional; conditions: SW-620, 48 h, read-out: Activity

CC(C(=O)NN1C(=O)CSC1c1ccc(C(F)(F)F)cc1)c1ccc(-c2ccccc2)c(F)c1 (stereo unspecified)
growth at 10 µM (Malme-3M): 63%
Activity (Photorhabdus luminescens): inactive
growth at 10 µM (K562): 39.5%
growth at 10 µM (786-0): 47.2%
growth at 10 µM (SF-268): 62.1%
growth at 10 µM (HOP-62): 82.1%
growth at 10 µM (U-251): 65.2%
growth at 10 µM (BT-549): 68%
growth at 10 µM (SK-OV-3): 94.7%
growth at 10 µM (NCI-H322M): 76.9%
growth at 10 µM (SNB-75): 43%
growth at 10 µM (NCI-H226): 86%
growth at 10 µM (RXF 393): 72.5%
growth at 10 µM (HCT-116): 45.5%
growth at 10 µM (MDA-MB-231): 70.1%
growth at 10 µM (NCI-H522): 79.5%
growth at 10 µM (HT-29): 55.1%
Activity (Proteus vulgaris): inactive
growth at 10 µM (LOX IMVI): 74.5%
Activity (Salmonella paratyphi [1]): inactive
Activity [2]: inactive
Activity (Escherichia coli): inactive
growth at 10 µM (A549): 68.6%
Activity (Kluyveromyces marxianus): inactive
growth at 10 µM (Hs-578T): 54.2%
inhibition (Hepacivirus hominis): 8%
Activity (Aspergillus): inactive
Activity (Klebsiella aerogenes): inactive
Activity (Salmonella paratyphi [3]): inactive
growth at 10 µM (SF-539): 63%
Activity (Staphylococcus cohnii): inactive
growth at 10 µM (SK-MEL-28): 99.9%
growth at 10 µM (UACC-257): 94.4%
growth at 10 µM (T47D): 33.4%
Activity (Micrococcus lylae): inactive
Activity [4]: inactive
growth at 10 µM (HOP-92): 59.9%
growth at 10 µM (HCT-15): 69.5%
Activity [5]: inactive
growth at 10 µM (CAKI-1): 33.6%
growth at 10 µM (SW-620): 83.9%
